Laboratory results: patent publication US20230143604A1, “QW DOSING OF GIP RECEPTOR AGONIST PEPTIDE COMPOUNDS AND USES THEREOF” (TAKEDA PHARMACEUTICAL COMPANY LIMITED, priority 2020, published 2023)
Starred links: 1 amine or outer side, 2 acyl side, 3 side chain; linkers in the order of their positions; H or OH if unused. Non-standard residues stand in square brackets, D forms with d. Residues, ends and D or L forms follow the SMILES beside them. Groups on a side chain read outwards from the residue. *: point of attachment. C18 diacid = O=C(O)CCCCCCCCCCCCCCCCC(=O)*; γGlu = O=C(O)[C@H](CCC(=O)[*:2])N[*:1]; NMeY = CN[C@@H](Cc1ccc(O)cc1)C(=O)O; AEEA = NCCOCCOCC(=O)O; Aib = CC(C)(N)C(=O)O

Assay: Solubility in phosphate buffer pH 7.4
Summary of the method: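 Solubility at pH 7.4 determined by stepwise addition of 200 mM phosphate buffer in 100 μL increments to 3 mg peptide, mixing briefly each time, until no insoluble material remained, then measured by liquid chromatography.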

[1] = pH 7.4, aqueous buffer, pH 7.4 Phosphate Buffer - Solubility, 200 mM Phosphate buffer pH 7.4
[2] = pH 7.4, solubility in phosphate buffer at pH 7.4, 200 mM phosphate buffer pH 7.4

Row | Compound | solubility [1] | solubility [2]
1 | CC[C@H](C)[C@H](NC(=O)[C@H](Cc1ccccc1)NC(=O)[C@@H](NC(=O)CNC(=O)[C@H](CCC(=O)O)NC(=O)C(C)(C)NC(=O)[C@H](Cc1ccc(O)cc1)NC)[C@@H](C)O)C(=O)N[C@@H](CO)C(=O)N[C@@H](CC(=O)O)C(=O)N[C@@H](Cc1ccc(O)cc1)C(=O)N[C@@H](CO)C(=O)N[C@H](C(=O)NC(C)(C)C(=O)N[C@@H](CC(C)C)C(=O)N[C@@H](CC(=O)O)C(=O)N[C@@H](CCCNC(=N)N)C(=O)NC(C)(C)C(=O)N[C@@H](C)C(=O)N[C@@H](CCC(N)=O)C(=O)NC(C)(C)C(=O)N[C@@H](CCCCNC(=O)COCCOCCNC(=O)COCCOCCNC(=O)CC[C@H](NC(=O)CC[C@H](NC(=O)CCCCCCCCCCCCCCCCC(=O)O)C(=O)O)C(=O)O)C(=O)N[C@@H](Cc1ccccc1)C(=O)N[C@H](C(=O)N[C@@H](CC(N)=O)C(=O)N[C@@H](Cc1c[nH]c2ccccc12)C(=O)N[C@@H](CC(C)C)C(=O)N[C@@H](CC(C)C)C(=O)N[C@@H](C)C(=O)N[C@@H](CCC(N)=O)C(=O)N[C@@H](CCCNC(=N)N)C(=O)N1CCC[C@H]1C(=O)N[C@@H](CO)C(=O)N[C@@H](CO)C(=O)NCC(=O)N[C@@H](C)C(=O)N1CCC[C@H]1C(=O)N1CCC[C@H]1C(=O)N1CCC[C@H]1C(=O)N[C@@H](CO)C(N)=O)C(C)C)[C@@H](C)CC [Compound 89] (H-[NMeY][Aib]EGTFISDYSI[Aib]LDR[Aib]AQ[Aib]K([AEEA-AEEA-γGlu-γGlu-C18 diacid])FVNWLLAQRPSSGAPPPS-NH2) | ≥ 60 mg/mL | ≥ 15 mg/mL
2 | CC[C@H](C)[C@H](NC(=O)[C@H](Cc1ccccc1)NC(=O)[C@@H](NC(=O)CNC(=O)[C@H](CCC(=O)O)NC(=O)C(C)(C)NC(=O)[C@H](Cc1ccc(O)cc1)NC)[C@@H](C)O)C(=O)N[C@@H](CO)C(=O)N[C@@H](CC(=O)O)C(=O)N[C@@H](Cc1ccc(O)cc1)C(=O)N[C@@H](CO)C(=O)N[C@H](C(=O)NC(C)(C)C(=O)N[C@@H](CC(C)C)C(=O)N[C@@H](CC(=O)O)C(=O)N[C@@H](CCCNC(=N)N)C(=O)NC(C)(C)C(=O)N[C@@H](C)C(=O)N[C@@H](CCC(N)=O)C(=O)NC(C)(C)C(=O)N[C@@H](CCCCNC(=O)COCCOCCNC(=O)COCCOCCNC(=O)CC[C@H](NC(=O)CC[C@H](NC(=O)CCCCCCCCCCCCCCCCC(=O)O)C(=O)O)C(=O)O)C(=O)N[C@@H](Cc1ccccc1)C(=O)N[C@H](C(=O)N[C@@H](CC(N)=O)C(=O)N[C@@H](Cc1c[nH]c2ccccc12)C(=O)N[C@@H](CC(C)C)C(=O)N[C@@H](CC(C)C)C(=O)N[C@@H](C)C(=O)N[C@@H](CCC(N)=O)C(=O)N[C@@H](CO)C(=O)N1CCC[C@H]1C(=O)N[C@@H](CO)C(=O)N[C@@H](CO)C(=O)NCC(=O)N[C@@H](C)C(=O)N1CCC[C@H]1C(=O)N1CCC[C@H]1C(=O)N1CCC[C@H]1C(=O)N[C@@H](CO)C(N)=O)C(C)C)[C@@H](C)CC [Compound 90] (H-[NMeY][Aib]EGTFISDYSI[Aib]LDR[Aib]AQ[Aib]K([AEEA-AEEA-γGlu-γGlu-C18 diacid])FVNWLLAQSPSSGAPPPS-NH2) | ≥ 60 mg/mL | ≥ 15 mg/mL
3 | CC[C@H](C)[C@H](NC(=O)[C@H](Cc1ccccc1)NC(=O)[C@@H](NC(=O)CNC(=O)[C@H](CCC(=O)O)NC(=O)C(C)(C)NC(=O)[C@H](Cc1ccc(O)cc1)NC)[C@@H](C)O)C(=O)N[C@@H](CO)C(=O)N[C@@H](CC(=O)O)C(=O)N[C@@H](Cc1ccc(O)cc1)C(=O)N[C@@H](CO)C(=O)N[C@H](C(=O)NC(C)(C)C(=O)N[C@@H](CC(C)C)C(=O)N[C@@H](CC(=O)O)C(=O)N[C@@H](CCCNC(=N)N)C(=O)NC(C)(C)C(=O)N[C@@H](C)C(=O)N[C@@H](CCC(N)=O)C(=O)NC(C)(C)C(=O)N[C@@H](CCCCNC(=O)COCCOCCNC(=O)COCCOCCNC(=O)CC[C@H](NC(=O)CCCCCCCCCCCCCCCCC(=O)O)C(=O)O)C(=O)N[C@@H](Cc1ccccc1)C(=O)N[C@H](C(=O)N[C@@H](CC(N)=O)C(=O)N[C@@H](Cc1c[nH]c2ccccc12)C(=O)N[C@@H](CC(C)C)C(=O)N[C@@H](CC(C)C)C(=O)N[C@@H](C)C(=O)N[C@@H](CCC(N)=O)C(=O)N[C@@H](CO)C(=O)N1CCC[C@H]1C(=O)N[C@@H](CO)C(=O)N[C@@H](CO)C(=O)NCC(=O)N[C@@H](C)C(=O)N1CCC[C@H]1C(=O)N1CCC[C@H]1C(=O)N1CCC[C@H]1C(=O)N[C@@H](CO)C(N)=O)C(C)C)[C@@H](C)CC [Compound 91] (H-[NMeY][Aib]EGTFISDYSI[Aib]LDR[Aib]AQ[Aib]K([AEEA-AEEA-γGlu-C18 diacid])FVNWLLAQSPSSGAPPPS-NH2) | ≥ 60 mg/mL | ≥ 15 mg/mL
4 | CC[C@H](C)[C@H](NC(=O)[C@H](Cc1ccccc1)NC(=O)[C@@H](NC(=O)CNC(=O)[C@H](CCC(=O)O)NC(=O)C(C)(C)NC(=O)[C@H](Cc1ccc(O)cc1)NC)[C@@H](C)O)C(=O)N[C@@H](CO)C(=O)N[C@@H](CC(=O)O)C(=O)N[C@@H](Cc1ccc(O)cc1)C(=O)N[C@@H](CO)C(=O)N[C@H](C(=O)NC(C)(C)C(=O)N[C@@H](CC(C)C)C(=O)N[C@@H](CC(=O)O)C(=O)N[C@@H](CCCNC(=N)N)C(=O)NC(C)(C)C(=O)N[C@@H](C)C(=O)N[C@@H](CCC(N)=O)C(=O)NC(C)(C)C(=O)N[C@@H](CCCCNC(=O)COCCOCCNC(=O)CC[C@H](NC(=O)COCCOCCNC(=O)CC[C@H](NC(=O)CCCCCCCCCCCCCCCCC(=O)O)C(=O)O)C(=O)O)C(=O)N[C@@H](Cc1ccccc1)C(=O)N[C@H](C(=O)N[C@@H](CC(N)=O)C(=O)N[C@@H](Cc1c[nH]c2ccccc12)C(=O)N[C@@H](CC(C)C)C(=O)N[C@@H](CC(C)C)C(=O)N[C@@H](C)C(=O)N[C@@H](CCC(N)=O)C(=O)N[C@@H](CO)C(=O)N1CCC[C@H]1C(=O)N[C@@H](CO)C(=O)N[C@@H](CO)C(=O)NCC(=O)N[C@@H](C)C(=O)N1CCC[C@H]1C(=O)N1CCC[C@H]1C(=O)N1CCC[C@H]1C(=O)N[C@@H](CO)C(N)=O)C(C)C)[C@@H](C)CC [Compound 92] (H-[NMeY][Aib]EGTFISDYSI[Aib]LDR[Aib]AQ[Aib]K([AEEA-γGlu-AEEA-γGlu-C18 diacid])FVNWLLAQSPSSGAPPPS-NH2) | ≥ 60 mg/mL | ≥ 15 mg/mL
5 | CC[C@H](C)[C@H](NC(=O)[C@H](Cc1ccccc1)NC(=O)[C@@H](NC(=O)CNC(=O)[C@H](CCC(=O)O)NC(=O)C(C)(C)NC(=O)[C@H](Cc1ccc(O)cc1)NC)[C@@H](C)O)C(=O)N[C@@H](CO)C(=O)N[C@@H](CC(=O)O)C(=O)N[C@@H](Cc1ccc(O)cc1)C(=O)N[C@@H](CO)C(=O)N[C@H](C(=O)NC(C)(C)C(=O)N[C@@H](CC(C)C)C(=O)N[C@@H](CC(=O)O)C(=O)N[C@@H](CCCNC(=N)N)C(=O)NC(C)(C)C(=O)N[C@@H](C)C(=O)N[C@@H](CCC(N)=O)C(=O)NC(C)(C)C(=O)N[C@@H](CCCCNC(=O)COCCOCCNC(=O)CC[C@H](NC(=O)CC[C@H](NC(=O)CCCCCCCCCCCCCCCCC(=O)O)C(=O)O)C(=O)O)C(=O)N[C@@H](Cc1ccccc1)C(=O)N[C@H](C(=O)N[C@@H](CC(N)=O)C(=O)N[C@@H](Cc1c[nH]c2ccccc12)C(=O)N[C@@H](CC(C)C)C(=O)N[C@@H](CC(C)C)C(=O)N[C@@H](C)C(=O)N[C@@H](CCC(N)=O)C(=O)N[C@@H](CO)C(=O)N1CCC[C@H]1C(=O)N[C@@H](CO)C(=O)N[C@@H](CO)C(=O)NCC(=O)N[C@@H](C)C(=O)N1CCC[C@H]1C(=O)N1CCC[C@H]1C(=O)N1CCC[C@H]1C(=O)N[C@@H](CO)C(N)=O)C(C)C)[C@@H](C)CC [Compound 93] (H-[NMeY][Aib]EGTFISDYSI[Aib]LDR[Aib]AQ[Aib]K([AEEA-γGlu-γGlu-C18 diacid])FVNWLLAQSPSSGAPPPS-NH2) | ≥ 60 mg/mL | ≥ 15 mg/mL
